One may read the Kd as the free concentration of one partner at which half of the binding sites on the other are occupied at equilibrium, for simple one-to-one binding. Lower therefore signals tighter binding. As a reminder, the Km is the substrate concentration at which the rate is half of its maximum.

These results are taken from article PMC10278073, “How Is Substrate Halogenation Triggered by the Vanadium Haloperoxidase from Curvularia inaequalis?” (ACS Catalysis, 2023).

For data set [1], the target named is T1, vanadium chloroperoxidase (CiVCPO) (Curvularia inaequalis, UniProt P49053).
T1 construct: gene CPO; His-trap purified CiVCPO expressed in E. coli BL21 DE3 (67 kDa)
T1 sequence (P49053 1-609): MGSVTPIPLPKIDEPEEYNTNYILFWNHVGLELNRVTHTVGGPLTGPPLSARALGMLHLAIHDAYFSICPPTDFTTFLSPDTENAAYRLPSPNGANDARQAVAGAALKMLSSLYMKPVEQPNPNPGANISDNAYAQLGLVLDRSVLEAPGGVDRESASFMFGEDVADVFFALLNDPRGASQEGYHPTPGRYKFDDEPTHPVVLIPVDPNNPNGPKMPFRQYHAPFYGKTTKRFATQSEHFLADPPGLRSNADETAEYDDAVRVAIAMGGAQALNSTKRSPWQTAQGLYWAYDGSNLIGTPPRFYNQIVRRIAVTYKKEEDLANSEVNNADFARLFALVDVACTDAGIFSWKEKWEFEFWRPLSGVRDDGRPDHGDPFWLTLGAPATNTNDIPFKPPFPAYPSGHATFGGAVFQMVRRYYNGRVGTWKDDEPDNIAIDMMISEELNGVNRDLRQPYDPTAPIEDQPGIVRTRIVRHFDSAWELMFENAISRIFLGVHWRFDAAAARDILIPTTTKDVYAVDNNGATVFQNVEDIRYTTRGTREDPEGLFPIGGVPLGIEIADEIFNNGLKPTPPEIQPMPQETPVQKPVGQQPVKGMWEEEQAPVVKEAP
The data set can be described thus: fluorescence binding titration (quenching), tight-binding fit, pH […].

Substrate in data set [2]: c1ccc(-c2cc3ccccc3[nH]2)cc1
Description: purified protein. The conditions noted are these: vanadate pocket near the protein surface: Pro47, His222, Gln220, Asp292, Gly293, Asp390, Phe393, Pro396, Phe397 (docking/MD only).

`Cn1c(-c2ccccc2)cc2ccccc21` [methylphenylindole] gave a Kd in data set [1] of 660 ± 50 nM.

B1: vanadium chloroperoxidase (CiVCPO) (Curvularia inaequalis) (protein)
chain: MGSVTPIPLPKIDEPEEYNTNYILFWNHVGLELNRVTHTVGGPLTGPPLSARALGMLHLAIHDAYFSICPPTDFTTFLSPDTENAAYRLPSPNGANDARQAVAGAALKMLSSLYMKPVEQPNPNPGANISDNAYAQLGLVLDRSVLEAPGGVDRESASFMFGEDVADVFFALLNDPRGASQEGYHPTPGRYKFDDEPTHPVVLIPVDPNNPNGPKMPFRQYHAPFYGKTTKRFATQSEHFLADPPGLRSNADETAEYDDAVRVAIAMGGAQALNSTKRSPWQTAQGLYWAYDGSNLIGTPPRFYNQIVRRIAVTYKKEEDLANSEVNNADFARLFALVDVACTDAGIFSWKEKWEFEFWRPLSGVRDDGRPDHGDPFWLTLGAPATNTNDIPFKPPFPAYPSGHATFGGAVFQMVRRYYNGRVGTWKDDEPDNIAIDMMISEELNGVNRDLRQPYDPTAPIEDQPGIVRTRIVRHFDSAWELMFENAISRIFLGVHWRFDAAAARDILIPTTTKDVYAVDNNGATVFQNVEDIRYTTRGTREDPEGLFPIGGVPLGIEIADEIFNNGLKPTPPEIQPMPQETPVQKPVGQQPVKGMWEEEQAPVVKEAP
With B1, the Km in data set [2] turned out to be 1.52 µM.
